Assay: Henry solubility constant Hcp at 298.15 K (mol/(m3 Pa))
Details: reference: Kolb et al. (1992)

| Compound | Henry solubility constant Hcp |
| --- | --- |
| ClC(Cl)=C(Cl)Cl [tetrachloroethene] | 0.00081 |
| CCCCOC(C)=O [butyl ethanoate] | 0.023 |
| C1CCCCC1 [cyclohexane] | 5.4e-05 |
| CCCCCC [hexane] | 0.00024 |
| CC(C)O [2-propanol] | 0.79 |
| Cc1ccccc1 [methylbenzene] | 0.0016 |
| CC(=O)CC(C)C [4-methyl-2-pentanone] | 0.043 |
| CCOC(C)=O [ethyl ethanoate] | 0.044 |
| Cc1ccccc1C [1,2-dimethylbenzene] | 0.0014 |
| CC(Cl)(Cl)Cl [1,1,1-trichloroethane] | 0.00079 |

— Sander's compilation of Henry's law constants (doi:10.1007/bf02268351)
